Assays:
human CXCR3A = target: T1, human CXCR3A (Homo sapiens, UniProt P49682); test: FLIPR assay (CXCL10-induced calcium signal in CHO-K1 cells); type: cell-based; settings: CHO-K1 cells expressing human CXCR3A coupled to Galpha(16); CXCL10 agonist 20 nM; mean values
T1 construct: expressed in transfected cells; host or cells: CHO-K1
T1 sequence (P49682 1-368): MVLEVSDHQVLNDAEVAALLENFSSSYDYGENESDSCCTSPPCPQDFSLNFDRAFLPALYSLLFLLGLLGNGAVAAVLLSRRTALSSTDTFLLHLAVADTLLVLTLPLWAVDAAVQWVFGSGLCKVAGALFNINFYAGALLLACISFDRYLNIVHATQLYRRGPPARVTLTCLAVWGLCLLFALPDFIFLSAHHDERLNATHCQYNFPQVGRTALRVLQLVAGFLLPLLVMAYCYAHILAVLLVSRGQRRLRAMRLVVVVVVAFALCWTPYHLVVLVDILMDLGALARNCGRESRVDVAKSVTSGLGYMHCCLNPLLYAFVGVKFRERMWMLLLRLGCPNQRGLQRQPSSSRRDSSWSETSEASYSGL
Procedure: A) FLIPR assay: The bioactivity of compounds is tested in a fluorometric imaging plate reader (FLIPR: Molecular Devices) using engineered CHO-K1 cells expressing the human CXCR3A (GenBank: AY242128) coupled to a G protein (Galpha(16)). Cells are plated the day prior to bioassay in F12 medium supplemented with 10% FBS and G418 and hygromycin antibiotics to maintain recombinant selection. […] Cells are washed free of excess dye and 60 microliter of wash buffer is added. Stock solutions of test compounds are made up at a concentration of 10 mM in DMSO, and serially diluted in dilution buffer to concentrations required for inhibition dose response curves. After a 10 minute incubation period at 37° C., 10 microliters of each compound dilution are transferred from a compound plate to the plate containing the recombinant cells in the FLIPR instrument according to the manufacturer's instructions. Following basal readings, 10 microliter CXCL10 agonist at a concentration of 20 nM (from Peprotech) is added, again using the FLIPR instrument. Changes in fluorescence are monitored before and after addition of the test compounds. Emission peak values above base level after CXCL10 addition are exported after base line subtraction. The program XLfit is used to fit the data to a single site dose response curve and to calculate IC50 values. The calculated IC50 values may fluctuate depending on the daily assay performance. Fluctuations of this kind are known to those skilled in the art.

hERG K channel = target: T2, hERG K channel (Homo sapiens, UniProt Q12809); test: hERG Q-Patch assay; type: cell-based; settings: CHO cells expressing hERG, K+ tail current 3 min after application, mean of two or three experiments
T2 construct: host or cells: CHO
Procedure: B) hERG Q-Patch assay: Compounds are evaluated for block of the hERG K channel using CHO cells stably expressing the hERG gene (accession number U04270, bSys, Witterswil. Switzerland) and the Patch robotic platform (Sophion, Ballerup, Denmark) in single-cell mode at room temperature. […] When the cells are ˜80% confluent (every 2-3 days), they are either split for further culture or used for electrophysiology. […] Cells are kept in suspension medium at 32-35° C. in the QPatch robot until use, at which time aliquots are transferred to the extracellular solution (in mM: NaCl 150; KCl 4; CaCl2 1.2; MgCl2 1; HEPES 10; pH 7.4 with NaOH) containing 0.3% v/v DMSO and applied to the test plates. K^+ currents are measured with the patch-voltage-clamp technique in the whole-cell configuration with the internal solution (in […]: KCl, 140; NaCl, 10; MgCl2, 1; HEPES, 10; EGTA, 5; pH=7.2 with KOH). […] K^+tail currents are produced from a holding voltage of −80 mV by a 500-ms depolarization to +20 mV followed by a 500-ms repolarization to −40 mV; tail current amplitudes are measured at the end of the repolarization to −40 mV. The pulse pattern is repeated every 10 sec during the experiment, baseline K^+ current is measured after 3 min in extracellular solution, test-solution containing compound is then applied, and K^+ current in presence of compound is measured 3 minutes after application to the cells.

T2 sequence (Q12809 whole entry): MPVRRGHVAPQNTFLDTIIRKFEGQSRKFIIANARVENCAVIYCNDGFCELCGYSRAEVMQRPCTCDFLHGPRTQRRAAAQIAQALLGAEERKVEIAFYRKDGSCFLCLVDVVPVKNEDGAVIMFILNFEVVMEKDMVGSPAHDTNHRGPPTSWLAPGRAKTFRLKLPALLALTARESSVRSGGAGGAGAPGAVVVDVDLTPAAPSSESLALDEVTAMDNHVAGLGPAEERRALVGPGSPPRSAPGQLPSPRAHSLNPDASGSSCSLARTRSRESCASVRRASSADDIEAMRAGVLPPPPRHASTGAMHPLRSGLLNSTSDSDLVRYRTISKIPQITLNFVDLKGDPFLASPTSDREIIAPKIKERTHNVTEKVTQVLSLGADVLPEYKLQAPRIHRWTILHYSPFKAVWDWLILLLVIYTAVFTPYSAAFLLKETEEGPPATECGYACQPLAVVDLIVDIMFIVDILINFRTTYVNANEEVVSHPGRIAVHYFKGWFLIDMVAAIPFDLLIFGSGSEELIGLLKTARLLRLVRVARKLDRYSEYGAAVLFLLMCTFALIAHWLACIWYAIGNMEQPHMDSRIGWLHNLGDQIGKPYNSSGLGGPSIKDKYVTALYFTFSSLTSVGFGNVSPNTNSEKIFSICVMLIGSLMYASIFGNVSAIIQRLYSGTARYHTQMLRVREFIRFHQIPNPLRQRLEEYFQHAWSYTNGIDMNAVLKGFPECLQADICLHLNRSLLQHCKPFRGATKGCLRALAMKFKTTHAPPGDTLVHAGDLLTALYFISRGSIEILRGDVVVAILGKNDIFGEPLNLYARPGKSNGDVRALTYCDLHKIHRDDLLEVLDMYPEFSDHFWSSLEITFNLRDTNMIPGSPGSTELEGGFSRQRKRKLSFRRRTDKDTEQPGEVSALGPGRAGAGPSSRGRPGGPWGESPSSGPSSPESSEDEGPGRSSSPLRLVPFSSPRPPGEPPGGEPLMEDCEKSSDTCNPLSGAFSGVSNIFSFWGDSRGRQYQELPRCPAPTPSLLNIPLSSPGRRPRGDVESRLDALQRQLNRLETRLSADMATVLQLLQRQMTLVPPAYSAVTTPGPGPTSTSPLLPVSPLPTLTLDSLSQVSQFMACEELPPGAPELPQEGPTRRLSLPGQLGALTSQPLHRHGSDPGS

IC50 (human CXCR3A) [nM] | SMILES | % block (hERG K channel; concentration 300 nM) [%] | % block (hERG K channel; concentration 3000 nM) [%]
76 | Cc1nc(C)n(CC(=O)N2CCN(c3sc(C(F)(F)F)nc3-c3ccc4c(c3)OCO4)C[C@H]2C)n1 [Example 13, 1-[(R)-4-(4-Benzo[1,3]dioxol-5-yl-2-trifluoromethyl-thiazol-5-yl)-2-methyl-piperazin-1-yl]-2-(3,5-dimethyl-[1,2,4]triazol-1-yl)-ethanone] | 9 | 39
31 | Cc1nc(C)n(CC(=O)N2CCN(c3sc(C(F)(F)F)nc3-c3ccc4c(c3)OCCO4)C[C@H]2C)n1 [Example 14, 1-{(R)-4-[4-(2,3-Dihydro-benzo[1,4]dioxin-6-yl)-2-trifluoromethyl-thiazol-5-yl]-2-methyl-piperazin-1-yl}-2-(3,5-dimethyl-[1,2,4]triazol-1-yl)-ethanone] | 5 | 14
20 | CCOc1ncc(-c2nc(C(F)(F)F)sc2N2CCN(C(=O)Cn3nc(CN(C)C)nc3C)[C@H](C)C2)cn1 [Example 17, 2-(3-Dimethylaminomethyl-5-methyl-[1,2,4]triazol-1-yl)-1-{(R)-4-[4-(2-ethoxy-pyrimidin-5-yl)-2-trifluoromethyl-thiazol-5-yl]-2-methyl-piperazin-1-yl}-ethanone] | 13 | 26
4.7 | Cc1nc(C)n(CC(=O)N2CCN(c3sc(C(F)(F)F)nc3-c3ccc4c(c3)CCCO4)C[C@H]2C)n1 [Example 21, 1-[(R)-4-(4-Chroman-6-yl-2-trifluoromethyl-thiazol-5-yl)-2-methyl-piperazin-1-yl]-2-(3,5-dimethyl-[1,2,4]triazol-1-yl)-ethanone] | 1 | 12
6.8 | COCCOc1ncc(-c2nc(C(F)(F)F)sc2N2CCN(C(=O)Cn3nc(C)nc3C)[C@H](C)C2)cn1 [Example 25, 2-(3,5-Dimethyl-[1,2,4]triazol-1-yl)-1-((R)-4-{4-[2-(2-methoxy-ethoxy)-pyrimidin-5-yl]-2-trifluoromethyl-thiazol-5-yl}-2-methyl-piperazin-1-yl)-ethanone] | −1 | 1
41 | Cc1nc(C)n(CC(=O)N2CCN(c3sc(C(F)(F)F)nc3-c3cnc(OCCN(C)C)nc3)C[C@H]2C)n1 [Example 26, 1-((R)-4-{4-[2-(2-Dimethylamino-ethoxy)-pyrimidin-5-yl]-2-trifluoromethyl-thiazol-5-yl}-2-methyl-piperazin-1-yl)-2-(3,5-dimethyl-[1,2,4]triazol-1-yl)-ethanone] | −1 | −8
2.8 | Cc1nc(C)n(CC(=O)N2CCN(c3sc(C(F)(F)F)nc3-c3cnc(OCC(F)(F)F)nc3)C[C@H]2C)n1 [Example 28, 2-(3,5-Dimethyl-[1,2,4]triazol-1-yl)-1-((R)-2-methyl-4-{4-[2-(2,2,2-trifluoro-ethoxy)-pyrimidin-5-yl]-2-trifluoromethyl-thiazol-5-yl}-piperazin-1-yl)-ethanone] | 0 | 6
4.5 | CCOc1ncc(-c2nc(C(F)(F)F)sc2N2CCN(C(=O)Cn3nc(C)nc3C)[C@H](C)C2)c(OCC)n1 [Example 29, 1-{(R)-4-[4-(2,4-Diethoxy-pyrimidin-5-yl)-2-trifluoromethyl-thiazol-5-yl]-2-methyl-piperazin-1-yl}-2-(3,5-dimethyl-[1,2,4]triazol-1-yl)-ethanone] | −2 | 0
22 | Cc1nc(C)n(CC(=O)N2CCN(c3sc(C(F)(F)F)nc3-c3cnc(OC4COC4)nc3)C[C@H]2C)n1 [Example 30, 2-(3,5-Dimethyl-[1,2,4]triazol-1-yl)-1-((R)-2-methyl-4-{4-[2-(oxetan-3-yloxy)-pyrimidin-5-yl]-2-trifluoromethyl-thiazol-5-yl}-piperazin-1-yl)-ethanone] | 1 | 6
10 | CCOc1ccc(-c2nc(C(F)(F)F)sc2N2CCN(C(=O)Cn3nc(C)nc3C)[C@H](C)C2)cc1 [Example 31, 2-(3,5-Dimethyl-[1,2,4]triazol-1-yl)-1-{(R)-4-[4-(4-ethoxy-phenyl)-2-trifluoromethyl-thiazol-5-yl]-2-methyl-piperazin-1-yl}-ethanone] | 6 | 14
4.6 | CCOc1ncc(-c2nc(C(F)(F)F)sc2N2CCN(C(=O)Cn3nc(C)nc3C)CC2)cn1 [Example 35, 2-(3,5-Dimethyl-[1,2,4]triazol-1-yl)-1-{4-[4-(2-ethoxy-pyrimidin-5-yl)-2-trifluoromethyl-thiazol-5-yl]-piperazin-1-yl}-ethanone] | 2 | 4
4.8 | Cc1nc(C)n(CC(=O)N2CCN(c3sc(C(F)(F)F)nc3-c3cnc(N4CCN(C)CC4)nc3)C[C@H]2C)n1 [Example 37, 2-(3,5-Dimethyl-[1,2,4]triazol-1-yl)-1-((R)-2-methyl-4-{4-[2-(4-methyl-piperazin-1-yl)-pyrimidin-5-yl]-2-trifluoromethyl-thiazol-5-yl}-piperazin-1-yl)-ethanone] | 2 | 4
31 | Cc1nc(C)n(CC(=O)N2CCN(c3sc(C(F)(F)F)nc3-c3cnc4c(c3)CCCO4)C[C@H]2C)n1 [Example 39, 1-{(R)-4-[4-(3,4-Dihydro-2H-pyrano[2,3-b]pyridin-6-yl)-2-trifluoromethyl-thiazol-5-yl]-2-methyl-piperazin-1-yl}-2-(3,5-dimethyl-[1,2,4]triazol-1-yl)-ethanone] | 3 | 15
22 | Cc1nc(C)n(CC(=O)N2CCN(c3sc(C(F)(F)F)nc3-c3ccc4c(c3)CCO4)C[C@H]2C)n1 [Example 40, 1-{(R)-4-[4-(2,3-Dihydro-benzofuran-5-yl)-2-trifluoromethyl-thiazol-5-yl]-2-methyl-piperazin-1-yl}-2-(3,5-dimethyl-[1,2,4]triazol-1-yl)-ethanone] | 1 | 25
91 | Cc1nc(C)n(CC(=O)N2CCN(c3sc(C(F)(F)F)nc3-c3cnc(CCN(C)C)nc3)C[C@H]2C)n1 [Example 42, 1-((R)-4-{4-[2-(2-Dimethylamino-ethyl)-pyrimidin-5-yl]-2-trifluoromethyl-thiazol-5-yl}-2-methyl-piperazin-1-yl)-2-(3,5-dimethyl-[1,2,4]triazol-1-yl)-ethanone] | −3 | 0
5.1 | Cc1nc(CO)nn1CC(=O)N1CCN(c2sc(C(F)(F)F)nc2-c2cnc(C(F)(F)F)nc2)C[C@H]1C [Example 44, 2-(3-Hydroxymethyl-5-methyl-[1,2,4]triazol-1-yl)-1-{(R)-2-methyl-4-[2-trifluoromethyl-4-(2-trifluoromethyl-pyrimidin-5-yl)-thiazol-5-yl]-piperazin-1-yl}-ethanone] | −3 | −6

SMILES | IC50 (human CXCR3A) [nM] | % block (hERG K channel; concentration 300 nM) [%] | % block (hERG K channel; concentration 3000 nM) [%]
CCOc1ncc(-c2nc(C(F)(F)F)sc2N2CCN(C(=O)Cn3nc(C)nc3C)[C@@H](C)C2)cn1 [Example 34, 2-(3,5-Dimethyl-[1,2,4]triazol-1-yl)-1-{(S)-4-[4-(2-ethoxy-pyrimidin-5-yl)-2-trifluoromethyl-thiazol-5-yl]-2-methyl-piperazin-1-yl}-ethanone] | 5.7 | 3 | 4

Source: patent US10259807B2, “1-(piperazin-1-yl)-2-([1,2,4]triazol-1-yl)-ethanone derivatives” (Idorsia Pharmaceuticals Ltd., priority 2013, dated 2019)
